Reference: ChEMBL document CHEMBL6074711, “Design, Synthesis, and Activity Evaluation of C-23-Modified 5-O-Mycaminosyltylonolide Derivatives” (ACS Med Chem Lett, 2024)
≈ marks a conversion by molar mass, not a printed value.

Columns and labels:
Type in all cases: functional
Escherichia coli [1] = assay: Induction of resistance development in Escherichia coli ATCC25922 treated daily with continuous passaging measured after 14 passages by absorbance based assay; details: ATCC25922, 336 h, time 14 day
Escherichia coli [2] = assay: Induction of resistance development in Escherichia coli ATCC25922 treated daily with continuous passaging measured after 5 passages by absorbance based assay; details: ATCC25922, 120 h, time 5 day
Escherichia coli [3] = assay: Induction of resistance development in Escherichia coli ATCC25922 treated daily with continuous passaging measured after 10 passages by absorbance based assay; details: ATCC25922, 240 h, time 10 day
[4] = tested on: Stenotrophomonas maltophilia; assay: Antibacterial activity against Stenotrophomonas maltophilia ATCC17808 incubated for 16 to 20 hrs by broth microdilution method; details: time 16-20 hrs
Escherichia coli [5] = assay: Antibacterial activity against drug-resistant Escherichia coli clinical isolate 1322 incubated for 16 to 20 hrs by broth microdilution method; details: time 16-20 hrs
Staphylococcus aureus [6] = assay: Antibacterial activity against Staphylococcus aureus ATCC25923 under 10^7 CFU/ml of bacterial inoculum culture by absorbance based assay
Staphylococcus aureus [7] = assay: Antibacterial activity against Staphylococcus aureus ATCC25923 incubated for 16 to 20 hrs by broth microdilution method; details: time 16-20 hrs
Escherichia coli [8] = assay: Antibacterial activity against drug-resistant Escherichia coli clinical isolate 1333 incubated for 16 to 20 hrs by broth microdilution method; details: time 16-20 hrs
Staphylococcus aureus [9] = assay: Antibacterial activity against Staphylococcus aureus ATCC25923 under 10^4 CFU/ml of bacterial inoculum culture by absorbance based assay
Escherichia coli [10] = assay: Antibacterial activity against Escherichia coli ATCC25922 under 10^4 CFU/ml of bacterial inoculum culture by absorbance based assay
Escherichia coli [11] = assay: Antibacterial activity against Escherichia coli ATCC25922 incubated for 16 to 20 hrs by broth microdilution method; details: time 16-20 hrs
Escherichia coli [12] = assay: Antibacterial activity against Escherichia coli ATCC25922 under 10^6 CFU/ml of bacterial inoculum culture by absorbance based assay
Staphylococcus aureus [13] = assay: Antibacterial activity against Staphylococcus aureus ATCC25923 under 10^6 CFU/ml of bacterial inoculum culture by absorbance based assay
Staphylococcus aureus [14] = assay: Antibacterial activity against Staphylococcus aureus ATCC25923 under 10^5 CFU/ml of bacterial inoculum culture by absorbance based assay
Staphylococcus aureus [15] = assay: Antibacterial activity against drug-resistant Staphylococcus aureus clinical isolate M20 incubated for 16 to 20 hrs by broth microdilution method; details: time 16-20 hrs
Escherichia coli [16] = assay: Antibacterial activity against Escherichia coli ATCC25922 under 10^5 CFU/ml of bacterial inoculum culture by absorbance based assay
Enterococcus faecalis [17] = assay: Antibacterial activity against Enterococcus faecalis ATCC29212 incubated for 16 to 20 hrs by broth microdilution method; details: time 16-20 hrs
Escherichia coli [18] = assay: Antibacterial activity against Escherichia coli ATCC25922 under 10^7 CFU/ml of bacterial inoculum culture by absorbance based assay
Enterococcus faecalis [19] = assay: Bactericidal activity against Enterococcus faecalis ATCC29212 incubated for 20 to 24 hrs; details: time 20-24 hrs
[20] = tested on: Stenotrophomonas maltophilia; assay: Antibacterial activity against Stenotrophomonas maltophilia ATCC17808 incubated for 20 to 24 hrs; details: time 20-24 hrs
Escherichia coli [21] = assay: Ratio of MBC to MIC for Escherichia coli ATCC25922 incubated for 20 to 24 hrs; details: time 20-24 hrs
Staphylococcus aureus [22] = assay: Bactericidal activity against Staphylococcus aureus ATCC25923 incubated for 20 to 24 hrs; details: time 20-24 hrs
Escherichia coli [23] = assay: Antibacterial activity against Escherichia coli ATCC25922 incubated for 20 to 24 hrs; details: time 20-24 hrs
Enterococcus faecalis [24] = assay: Ratio of MBC to MIC for Enterococcus faecalis ATCC29212 incubated for 20 to 24 hrs; details: time 20-24 hrs
Staphylococcus aureus [25] = assay: Ratio of MBC to MIC for Staphylococcus aureus ATCC25923 incubated for 20 to 24 hrs; details: time 20-24 hrs
Staphylococcus aureus [26] = assay: Antibacterial activity against Staphylococcus aureus ATCC25923 incubated for 20 to 24 hrs; details: time 20-24 hrs
Escherichia coli [27] = assay: Bactericidal activity against Escherichia coli ATCC25922 incubated for 20 to 24 hrs; details: time 20-24 hrs
[28] = tested on: Stenotrophomonas maltophilia; assay: Ratio of MBC to MIC for Stenotrophomonas maltophilia ATCC17808 incubated for 20 to 24 hrs; details: time 20-24 hrs
[29] = tested on: Stenotrophomonas maltophilia; assay: Bactericidal activity against Stenotrophomonas maltophilia ATCC17808 incubated for 20 to 24 hrs; details: time 20-24 hrs
Enterococcus faecalis [30] = assay: Antibacterial activity against Enterococcus faecalis ATCC29212 incubated for 20 to 24 hrs; details: time 20-24 hrs

Compound: CS(=O)(=O)c1ccc([C@@H](O)[C@@H](CF)NC(=O)C(Cl)Cl)cc1 [FLORFENICOL]
- MIC (Escherichia coli [1]): 32 µg/mL (≈ 89.3 µM)
- MIC (Escherichia coli [2]): 8 µg/mL (≈ 22.3 µM)
- MIC (Escherichia coli [3]): 16 µg/mL (≈ 44.7 µM)

Compound: CC[C@H]1OC(=O)C[C@@H](O)[C@H](C)[C@@H](O[C@@H]2O[C@H](C)[C@@H](O[C@H]3C[C@@](C)(O)[C@@H](O)[C@H](C)O3)[C@H](N(C)C)[C@H]2O)[C@@H](CC=O)C[C@@H](C)C(=O)/C=C/C(C)=C/[C@@H]1CO[C@@H]1O[C@H](C)[C@@H](O)[C@@H](OC)[C@H]1OC [TYLOSIN]
- MIC [4]: > 32 µg/mL
- MIC (Escherichia coli [5]): > 32 µg/mL
- MIC (Staphylococcus aureus [6]): 4 µg/mL (≈ 4.37 µM)
- MIC (Staphylococcus aureus [7]): 0.5 µg/mL (≈ 0.546 µM)
- MIC (Escherichia coli [8]): > 32 µg/mL
- MIC (Staphylococcus aureus [9]): 1 µg/mL (≈ 1.09 µM)
- MIC (Escherichia coli [10]): 1 µg/mL (≈ 1.09 µM)
- MIC (Escherichia coli [11]): > 32 µg/mL
- MIC (Escherichia coli [12]): 2 µg/mL (≈ 2.18 µM)
- MIC (Staphylococcus aureus [13]): 4 µg/mL (≈ 4.37 µM)
- MIC (Staphylococcus aureus [14]): 2 µg/mL (≈ 2.18 µM)
- MIC (Staphylococcus aureus [15]): 0.5 µg/mL (≈ 0.546 µM)
- MIC (Escherichia coli [16]): 1 µg/mL (≈ 1.09 µM)
- MIC (Enterococcus faecalis [17]): 0.5 µg/mL (≈ 0.546 µM)
- MIC (Escherichia coli [18]): 2 µg/mL (≈ 2.18 µM)

Compound: CC[C@H]1OC(=O)C[C@@H](O)[C@H](C)[C@@H](O[C@@H]2O[C@H](C)[C@@H](O)[C@H](N(C)C)[C@H]2O)[C@@H](CCNCc2cn(-c3cnc4ccccc4c3)nn2)C[C@@H](C)C(=O)/C=C/C(C)=C/[C@@H]1CNCc1ccc(C)cc1
- MIC [4]: 1 µg/mL (≈ 1.1 µM)
- MIC (Escherichia coli [5]): 1 µg/mL (≈ 1.1 µM)
- MBC (Enterococcus faecalis [19]): 8 µg/mL (≈ 8.79 µM)
- MIC [20]: 2 µg/mL (≈ 2.2 µM)
- MIC (Staphylococcus aureus [7]): 0.5 µg/mL (≈ 0.549 µM)
- MIC (Escherichia coli [8]): 4 µg/mL (≈ 4.39 µM)
- Ratio (Escherichia coli [21]): 2
- MIC (Escherichia coli [11]): 1 µg/mL (≈ 1.1 µM)
- MBC (Staphylococcus aureus [22]): 1 µg/mL (≈ 1.1 µM)
- MIC (Escherichia coli [23]): 0.5 µg/mL (≈ 0.549 µM)
- Ratio (Enterococcus faecalis [24]): 2
- Ratio (Staphylococcus aureus [25]): 2
- MIC (Staphylococcus aureus [26]): 0.5 µg/mL (≈ 0.549 µM)
- MBC (Escherichia coli [27]): 1 µg/mL (≈ 1.1 µM)
- Ratio [28]: 2
- MIC (Staphylococcus aureus [15]): 0.5 µg/mL (≈ 0.549 µM)
- MBC [29]: 4 µg/mL (≈ 4.39 µM)
- MIC (Enterococcus faecalis [17]): 1 µg/mL (≈ 1.1 µM)
- MIC (Enterococcus faecalis [30]): 1 µg/mL (≈ 1.1 µM)
